US20210315886A1, “IMIDAZOTETRAZINE COMPOUNDS” (The Board of Trustees of the University of Illinois, priority 2018, published 2021)
“Also recorded” adds a separate entry of the source. Where two headings read alike, the source gives them in different places.

How the values were obtained:
[1] = Mouse liver microsome stability assay; format: in vitro ADME; settings: for stability to mouse liver microsomes: 2 hours
Method: Mouse Liver Microsome Stability Assay. A mixture of PBS (pH 7.4), NADPH regenerating system solution A (Corning Life Sciences), and NADPH regenerating system solution B (Corning Life Sciences) was incubated at 37° C. in a shaking incubator for 5 min. Next, compound was added in DMSO (final concentration 50 μM, 0.5% DMSO) before ice-cold mouse liver microsomes (Thermo Fisher, male CD-1 mice, pooled) were added (final protein concentration of 1 mg/mL). An aliquot was immediately removed, quenched with an equal volume of 100 μM internal standard and 0.5% hydrochloric acid in ice-cold acetonitrile, and centrifuged at 13,000 rcf for 3 min. The supernatant was diluted 1:5 in ddH2O and analyzed by LC-MS. The reactions were incubated at 37° C. in a shaking incubator for 2 h. A second aliquot was removed, quenched and diluted as before and analyzed by LC-MS. The ratio of the areas of analyte: internal standard at 2 hours was compared to the ratio at t0 to determine the percentage of compound remaining. Analysis was performed on an Agilent 6230 LC/MS TOF system with a 1.8 μm, 2.1×50 mm Agilent ZORBAX Eclipse Plus C18 column.

[2] = tested on: panel of human GBM cell lines; experiment: Anticancer activity against panel of human GBM cell lines; format: cell-based; settings: for anticancer activity in cell culture: across all cell lines / in culture; for activity relative to TMZ in MGMT-deficient cell lines: MGMT-deficient U87 and D54 cell lines; for IC50: Homo sapiens
Method: Anticancer activity of C8 substituted imidazotetrazines. With a suite of imidazotetrazines in hand, each compound was evaluated against a panel of human GBM cell lines (Table 1a, Table 1b).

[3] = tested on: GBM Br23c oncospheres intracranially implanted; experiment: Intracranial mouse model of GBM (Br23c oncospheres); format: in vivo; settings: for increase of median survival over TMZ: equimolar to 15 mg/kg TMZ, once-per-day, 5×/week for 7 weeks
Text: FIG. 5. Evaluation of imidazotetrazines in intracranial mouse models of GBM. GBM Br23c oncospheres were intracranially implanted into female athymic nude mice. Treatment was started 5 days post implantation. […] Compounds were formulated in 10% PEG in PBS immediately prior to each treatment. Number of mice per treatment cohort ≥5. Survival curves were compared using log-rank test.
in vivo Efficacy Models. Human GBM Br23c stem-like neurosphere cells were intracranially implanted in female athymic nude mice (150,000 cells/mouse). […] Mice were observed daily for any signs of deterioration, neurotoxicity, or movement disorders. They were inspected for signs of pain and distress, as in accordance with the Johns Hopkins Animal Care and Use Guidelines.

[4] = Hydrolytic stability in buffered saline (HPLC assay); format: physicochemical; settings: aqueous solution, PBS at pH 7.4
Text: Hydrolytic stability of C8 substituted imidazotetrazines.

T98G cells = experiment: Cytotoxicity in T98G cells with or without O6BG pre-treatment; format: cell-based, human
Method: FIG. 4. Imidazotetrazines were added to T98G cells with or without 3 h pre-treatment of O6BG (100 μM). IC50 values after 7-day incubation and fold changes between (+/−) O6BG treatments are reported. […] Error is SEM, n≥3. Statistical significance was determined by using a two-sample Student's t-test (two-tailed test, assuming equal variance).
After 8 hours of incubation with compound, the genomic DNA was isolated, quantified, and hydrolyzed to its constituent deoxyribonucleosides, which were quantitated via LC-MS/MS analysis. […] O6BG is a pseudosubstrate for MGMT that quenches cellular stores of the enzyme, leading to the persistence of O^6-methylguanine DNA adducts.

[5] = Assessment of hematological toxicity; format: in vivo; settings: mice, single IV dose 125 mg/kg, blood counts after 7 days
Method: Assessment of hematological toxicity. […] Both lymphocyte (FIG. 3b) and neutrophil (FIG. 8a) concentrations were decreased in TMZ-treated mice. […] Total WBC, lymphocyte, and neutrophil counts for mice treated with these compounds were equivalent to those of control mice.
Assessment of Hematological Toxicity. Male CD-1 IGS mice (n=4 mice/group) were administered a single dose of 125 mg/kg compound intravenously. Imidazotetrazines were formulated with SBEβCD in sterile water immediately prior to injection. Seven days post-treatment, mice were humanely sacrificed and whole blood was collected for assessment of total white blood cells, lymphocytes, neutrophils, platelets, and red blood cells.

[6] = cited from earlier work
U87 cells = experiment: Cell viability, Alamar Blue, 7 days, U87; format: cell-based; settings: Homo sapiens, U-87 MG, 168 h, Table 1a, MGMT −
Text: Cell Culture and Reagents.

Structure (SMILES) | stability to mouse liver microsomes [1] | anticancer activity in cell culture [2] | activity relative to TMZ in MGMT-deficient cell lines [2] | Fold Change between (+/−) O6BG IC50 (T98G cells) | other results
CCCCN(CCCC)C(=O)c1ncn2c(=O)n(C)nnc12 [Compound 7, N,N-dibutyl-3-methyl-4-oxo-3,4-dihydroimidazo[5,1-d][1,2,3,5]tetrazine-8-carboxamide] | markedly less stability in liver microsomes |  |  |  | Stability (2 h, Microsomes) ([1]; 2 h, percentage remaining relative to t0): 1 ± 1%
CNC(=O)c1ncn2c(=O)n(C)nnc12 [Compound 4, N,3-dimethyl-4-oxo-3,4-dihydroimidazo[5,1-d][1,2,3,5]tetrazine-8-carboxamide] | some susceptibility to the effects of the microsomes | retained activity in culture |  |  | increase of median survival over TMZ ([3]; oral): 24%
Cc1ncn2c(=O)n(C)nnc12 [Compound 14, 3,8-dimethylimidazo[5,1-d][1,2,3,5]tetrazin-4(3H)-one] |  | most active across all cell lines | as (or more) potent than TMZ |  | half-life [4]: > 20 h; effect on survival in intracranial model ([3]; oral, 15 mg/kg TMZ or equimolar dose, 15 mg/kg): lack of in vivo efficacy
Cn1nnc2c(Cl)ncn2c1=O [Compound 19, 8-chloro-3-methylimidazo[5,1-d][1,2,3,5]tetrazin-4(3H)-one] | generally stable to oxidative metabolism | retained activity in culture | as (or more) potent than TMZ |  | 
CN(C)C(=O)c1ncn2c(=O)n(C)nnc12 [Compound 5, N,N,3-trimethyl-4-oxo-3,4-dihydroimidazo[5,1-d][1,2,3,5]tetrazine-8-carboxamide] | some susceptibility to the effects of the microsomes | retained activity in culture |  | 10 | increase of median survival over TMZ ([3]; oral): 46%
Cn1nnc2c(-c3ccccc3)ncn2c1=O [Compound 23, 3-methyl-8-phenylimidazo[5,1-d][1,2,3,5]tetrazin-4(3H)-one] |  | most active across all cell lines | as (or more) potent than TMZ |  | half-life [4]: > 20 h
Cc1cnc(-c2ncn3c(=O)n(C)nnc23)o1 [Compound 27, 3-methyl-8-(5-methyloxazol-2-yl)imidazo[5,1-d][1,2,3,5]tetrazin-4(3H)-one] |  | retained activity in culture | as (or more) potent than TMZ | 20 | 
CCSC(=O)c1ncn2c(=O)n(C)nnc12 [Compound 10, S-ethyl 3-methyl-4-oxo-3,4-dihydroimidazo[5,1-d][1,2,3,5]tetrazine-8-carbothioate] |  |  | activity comparable to TMZ |  | 
Cn1nnc2c(C(N)=O)ncn2c1=O [TMZ, temozolomide, reference compound] | insensitive to metabolic perturbation |  |  |  | IC50 ([2]; GBM cell lines with negligible MGMT expression, read-out: IC50 in cell lines with negligible MGMT expression): ≤ 50 µM; IC50 ([2]; GBM cell lines with significant MGMT expression, read-out: IC50 in cell lines with significant MGMT expression): > 300 µM; myelosuppression / WBC toxicity [5]: white blood cell (WBC) depletion; incidence of myelotoxicity ([6]; TMZ-treated patients): ~20%; half-life ([6]; in vivo, in humans (b7: also in aqueous solutions in vitro)): ~2 h
CC(=O)c1ncn2c(=O)n(C)nnc12 [Compound 17, 8-acetyl-3-methylimidazo[5,1-d][1,2,3,5]tetrazin-4(3H)-one] | generally stable to oxidative metabolism | retained activity in culture | effective against MGMT-deficient cell lines | 8 | IC50 (U87 cells): 44 ± 6 µM; potency compared to TMZ ([2]; in culture, despite shorter aqueous half-life): equipotent to TMZ; myelosuppression / WBC toxicity ([5]; listed as K-TMZ, 125 mg/kg): did not produce myelosuppression; also recorded: significantly less in vivo toxicity to WBCs; extension of median survival past TMZ-treated mice ([3]; oral gavage, 14.9 mg/kg once-per-day for 5 total doses): more than 50 days
